# Experimental data: patent publication US20090209474A1, “NOVEL USES FOR DRUGS TARGETING GLUTAMINE SYNTHETASE” (NEWTHERA, priority 2005, published 2009)
# Read-outs that look alike come from different tables or passages of the source. Residues, ends and D or L forms follow the SMILES beside them.
# Legend:
# [1] = test system: glutamate metabotropic receptor; details: cited from earlier work
# GS (rat liver) = GS (rat liver) (Rattus norvegicus, UniProt P09606); details: cited from earlier work
# GS (sheep brain) = details: cited from earlier work
# GS [2] = details: cited from earlier work
# GS [3] = target: GS (Rattus norvegicus, UniProt P09606); format: in vivo, Wistar rats; set-up: Wistar rat brain homogenates were incubated with naftazone; from tissue; host or cells: Wistar rat brain homogenate or membranes; in A19 also liver and lungs; details: one hour after PTZ 50 mg/kg i.p.
# Chain of GS (Rattus norvegicus, UniProt P09606) (P09606 2-373 limits assumed): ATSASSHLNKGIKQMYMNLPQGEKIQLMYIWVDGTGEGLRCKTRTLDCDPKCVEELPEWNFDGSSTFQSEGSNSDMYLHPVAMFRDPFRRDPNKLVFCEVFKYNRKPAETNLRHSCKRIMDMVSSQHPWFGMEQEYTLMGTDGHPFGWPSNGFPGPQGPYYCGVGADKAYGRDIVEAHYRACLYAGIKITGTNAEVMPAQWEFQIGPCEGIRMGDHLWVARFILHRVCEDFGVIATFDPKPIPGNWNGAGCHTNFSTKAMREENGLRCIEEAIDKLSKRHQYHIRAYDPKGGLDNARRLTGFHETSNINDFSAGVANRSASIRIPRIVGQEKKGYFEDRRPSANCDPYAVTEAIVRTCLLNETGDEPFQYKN
# [4] = Adrenal weight in corticosterone-administered rats; format: in vivo, Wistar rats
# purified sheep brain GS = test: Purified sheep brain GS activity (Meister's method, gamma-glutamylhydroxamate formation); format: biochemical
# Wistar rat brain GS = target: T1, Wistar rat brain GS (Rattus norvegicus, UniProt P09606); test: GS activity in Wistar rat brain homogenates; format: biochemical; details: in absence of 2β-ME
# T1 construct: from tissue; host or cells: Wistar rat brain homogenate or membranes; in A19 also liver and lungs
# T1 sequence (P09606 2-373 limits assumed): as above
# Experimental: GS activity was assessed as mentioned above for purified sheep brain GS.
# Wistar rats [5] = test: Open field task in corticosterone-administered rats; format: in vivo; details: day 15, corticosterone 35 mg/kg s.c.; versus PCB and Control
# Wistar rats [6] = test: Forced swimming test in corticosterone-administered rats; format: in vivo
# Wistar rats [7] = test: PTZ-induced seizures; format: in vivo; details: rat, in vivo
# Chain of GS (rat liver) (P09606 2-373 limits assumed): as above
molecule,measurement,setting,value
"N[C@]1(C(=O)O)CCc2cc(C(=O)O)ccc21 (racemic) [(RS)-1-Aminoindan-1,5-dicarboxylic acid]",activity at glutamate metabotropic receptors in words,[1],"mGlu1 glutamate metabotropic receptor antagonist Pellicciari et al.,1995"
"NC(C(=O)O)c1cc(O)cc(O)c1 (racemic) [(RS)-3,5-Dihydroxyphenylglycine]",activity at glutamate metabotropic receptors in words,[1],"Group I selective glutamate metabotropic receptor agonist (activates mGlu1 and mGlu5) Schoepp et al., 1994"
NC(C(=O)O)c1cccc(O)c1 (racemic) [(RS)-3-Hydroxyphenylglycine],activity at glutamate metabotropic receptors in words,[1],"Glutamate metabotropic receptor agonist Thomsen and Suzdak, 1993"
"O=C(O)[C@@H]1C[C@@H](C(=O)O)N1 (relative stereo) [Trans-Azetidine-2,4-dicarboxylic acid]",activity at glutamate metabotropic receptors in words,[1],"Group I selective glutamate metabotropic receptor agonist. (activates mGlu1 and mGlu5) Kozikowski et al., 1993"
"N[C@@]1(C(=O)O)CC[C@H](C(=O)O)C1 [1-Aminocyclopentane-cis-1,3-dicarboxylic acid]",activity at glutamate metabotropic receptors in words,[1],"Group I/II glutamate metabotropic receptor agonist Olverman et al., 1983"
CC(N)(CCP(=O)(O)O)C(=O)O (stereo not shown) [2-Amino-2-methyl-4-phosphono butanoic acid],Ki,GS (rat liver),6300 µM
C[C@@](N)(CCP(=O)(O)O)C(=O)O [2-Amino-2-methyl-4-phosphono-butyric acid],activity at glutamate metabotropic receptors in words,[1],"Selective mGlu3 glutamate metabotropic receptor antagonist Sekiyama et al., 1996"
NC(CCP(=O)(O)O)C(=O)O (stereo not shown) [2-Amino-4-phosphono butanoic acid],Ki,GS (rat liver),880 µM
COC(=O)C(CCP(=O)(O)O)C(=O)O (stereo not shown) [2-Methoxycarbonyl-4-phosphono butanoic acid],Ki,GS (rat liver),8700 µM
CC1(/C=C/c2ccccc2)C=CC=CN1 (stereo not shown) [2-Methyl-2-(phenylethenyl)pyridine],activity at glutamate metabotropic receptors in words,[1],"Selective mGlu5 glutamate metabotropic receptor antagonist Varney et al., 1999"
CP(=O)(O)C(N)CCC(=O)O (stereo not shown) [4-Amino-4-(hydroxymethylphosphinyl) butanoic acid],Ki,GS (rat liver),800 µM
CC(N)(CCC(=O)O)[PH](=O)CO (stereo not shown) [4-Amino-4-(hydroxymethylphosphinyl)-4-methyl butanoic acid],Ki,GS (rat liver); read-out: Ki,9500 µM
NC(CCC(=O)O)P(=O)(O)O (stereo not shown) [4-Amino-4-phosphono butanoic acid],Ki,GS (rat liver),1300 µM
Cc1ccc(O)c(/N=N/c2ccccc2)n1 [6-Methyl-2-(phenylazo)-3-pyridinol],activity at glutamate metabotropic receptors in words,[1],"Selective mGlu5 glutamate metabotropic receptor antagonist Varney et al., 1999"
"N[C@](CC1c2ccccc2Oc2ccccc21)(C(=O)O)[C@H]1C[C@@H]1C(=O)O [(2S)-2-Amino-2-[(1S,2S)-2-carboxycycloprop-1-yl]-3-(xanth-9-yl) propanoic acid]",activity at glutamate metabotropic receptors in words,[1],"Highly potent mGlu2 glutamate metabotropic receptor antagonist Ornstein et al., 1998"
"N[C@H](C(=O)O)[C@@H]1[C@@H](C(=O)O)C1(F)F [(2S,1′S,2′S)-2-(2′-Carboxy-3′,3′-difluorocyclopropyl)glycine]",activity at glutamate metabotropic receptors in words,[1],"Glutamate metabotropic receptor agonist Shinozaki et al., 1996"
"N[C@@H](C[C@H](CCCC(c1ccccc1)c1ccccc1)C(=O)O)C(=O)O [(4S)-4-(4,4-Diphenylbutyl)-L-glutamic acid]",activity at glutamate metabotropic receptors in words,[1],"Selective and competitive mGlu2 glutamate metabotropic receptor antagonist Wermuth et al., 1996"
Cc1cc(C(=O)O)ccc1[C@H](N)C(=O)O [(S)-(+)-Amino-4-carboxy-2-methylbenzeneacetic acid],activity at glutamate metabotropic receptors in words,[1],"Selective mGlu1a glutamate metabotropic receptor antagonist Clarke et al., 1997"
CCC(N)(CCP(C)(=O)O)C(=O)O (stereo not drawn) [Alpha-ethyl phosphinothricin],Ki,GS (sheep brain),111 µM
C[C@@](N)(CCS(C)(=N)=O)C(=O)O (stereo partly drawn) [Alpha-methyl methionine sulfoximine],GS inhibition in words,GS [2],"Slightly less inhibitory synthetic MS derivative Eisenberg et al., 2000"
CC(N)(CCP(C)(=O)O)C(=O)O (stereo not drawn) [Alpha-methyl phosphinothricin],Ki,GS (sheep brain),125 µM
"NC1(C(=O)O)CCCC(P(=O)(O)O)C1 (stereo not shown) [Cyclohexane phosphinothricin, 1-Amino-3-phosphono-cyclohexane-carboxylic acid]",Ki,GS (sheep brain),125 µM
CC(CC(N)C(=O)O)P(C)(=O)O (stereo not shown) [Gamma methyl phosphinothricin],Ki,GS (sheep brain),407 µM
CP(=O)(O)C(O)CC(N)C(=O)O (stereo not shown) [Gamma-hydroxy phosphinothricin],Ki,GS (sheep brain),47 µM
N[C@H](C(=O)O)c1cc(=O)[nH]o1 [Ibotenic acid],activity at glutamate metabotropic receptors in words,[1],"Glutamate metabotropic receptor agonist Johnston, 1968"
CS(=O)(=O)CC[C@H](N)C(=O)O [Methionine sulfone],GS inhibition in words,GS [2],"Very potent ATP-dependent inhibitor of GS activity in a number of species. First discovered in nitrogen chloride treated zein. Eisenberg et al., 2000"
COC(=O)CCC(N)P(=O)(O)O (stereo not shown) [Methyl 4-amino-4-phosphono butanate],Ki,GS (rat liver),2100 µM
CC(=O)N[C@@H](CC(=O)O)C(=O)N[C@@H](CCC(=O)O)C(=O)O [N-Acetyl-L-aspartyl-L-glutamic acid] (Ac-Asp-Glu-OH),activity at glutamate metabotropic receptors in words,[1],"Highly selective mGlu3 glutamate metabotropic receptor agonist Morris et al., 1965"
"C1CCc2nnnn2CC1 [PTZ, pentylenetetrazole]","GS activity in the cortex, hippocampus and thalamus",GS [3],low
N[C@@H](CSS(=O)(=O)[O-])C(=O)O.[Na+] [S-Sulfo-L-cysteine sodium salt],activity at glutamate metabotropic receptors in words,[1],"mGlu1a and mGlu5a glutamate metabotropic receptor agonist Mewett et al., 1983"
C[C@]12C[C@H](O)[C@H]3[C@@H](CCC4=CC(=O)CC[C@@]43C)[C@@H]1CC[C@@H]2C(=O)CO [corticosterone],adrenal weight,[4]; repeated administration of corticosterone,decreased the adrenal weight
"NNC(=O)c1ccncc1 [isoniazid, Isoniazid]",tested on GS activity: ligand or not,purified sheep brain GS,GS ligands
"[Li] [lithium, Li2CO3]",maximum decrease of GS activity,Wistar rat brain GS; at 0.01 M,40%
N[C@@H](CCS(=O)(=O)CP(=O)(O)O)C(=O)O [s-Phosphonomethyl homocysteine sulfone],Ki,GS [2],1400 µM
N[C@@H](CC[S+]([O-])CP(=O)(O)O)C(=O)O (stereo partly shown) [s-Phosphonomethyl homocysteine sulfoxide],GS inhibition in words,GS [2],"Synthetic inhibitor Logusch et al., 1988 Eisenberg et at., 2000"
[Sr+2] [strontium],maximum decrease of GS activity,Wistar rat brain GS; at 10^−10 M,75%
"CN1c2ccccc2C(NCCCCCCC(=O)O)c2ccc(Cl)cc2S1(=O)=O (stereo not shown) [tianeptine, 7-[(3-chloro-6,11-dihydro-6-methyl-dibenzo[c,f][1,2]thiazepin-11-yl)amino] heptanoic acid S,S-dioxide]",resting time in the open field task,Wistar rats [5],higher
same,immobility in the forced swimming test,"Wistar rats [6]; GF 0.1 mg/kg, tianeptine 0.5 mg/kg",clear decrease in immobility
same,immobility in the forced swimming test,"Wistar rats [6]; day 19, corticosterone 35 mg/kg s.c., versus PCB and Control",comparable or lower
same,adrenal weight,"[4]; 21 days, versus PCB",higher
same,dose of maximum effect on seizures,Wistar rats [7],10 mg/kg
same,dose relation of the effect on seizures,Wistar rats [7],U-shaped
"(2S,3S,4S)-2-Methyl-2-(carboxycyclopropyl)glycine",activity at glutamate metabotropic receptors in words,[1],"mGlu2 glutamate metabotropic receptor antagonist Jane et al., 1994"
